Assays:
[1] = molecular target: T1, human TLR7 (Homo sapiens, UniProt Q9NYK1); assay: HEK Reporter Assay, HEK293 cells expressing human TLR7; format: cell-based; conditions: for EC50: HEK293 NFKB reporter cells expressing human TLR7, read-out: HEK293 hTLR7 EC50; for TLR7 activity relative to known TLR7 adjuvant C-1: HEK human TLR7 activity at 24 hours, FIG. 1
T1 construct: host or cells: HEK293 NF-kB reporter cells
T1 sequence (Q9NYK1 27-1049): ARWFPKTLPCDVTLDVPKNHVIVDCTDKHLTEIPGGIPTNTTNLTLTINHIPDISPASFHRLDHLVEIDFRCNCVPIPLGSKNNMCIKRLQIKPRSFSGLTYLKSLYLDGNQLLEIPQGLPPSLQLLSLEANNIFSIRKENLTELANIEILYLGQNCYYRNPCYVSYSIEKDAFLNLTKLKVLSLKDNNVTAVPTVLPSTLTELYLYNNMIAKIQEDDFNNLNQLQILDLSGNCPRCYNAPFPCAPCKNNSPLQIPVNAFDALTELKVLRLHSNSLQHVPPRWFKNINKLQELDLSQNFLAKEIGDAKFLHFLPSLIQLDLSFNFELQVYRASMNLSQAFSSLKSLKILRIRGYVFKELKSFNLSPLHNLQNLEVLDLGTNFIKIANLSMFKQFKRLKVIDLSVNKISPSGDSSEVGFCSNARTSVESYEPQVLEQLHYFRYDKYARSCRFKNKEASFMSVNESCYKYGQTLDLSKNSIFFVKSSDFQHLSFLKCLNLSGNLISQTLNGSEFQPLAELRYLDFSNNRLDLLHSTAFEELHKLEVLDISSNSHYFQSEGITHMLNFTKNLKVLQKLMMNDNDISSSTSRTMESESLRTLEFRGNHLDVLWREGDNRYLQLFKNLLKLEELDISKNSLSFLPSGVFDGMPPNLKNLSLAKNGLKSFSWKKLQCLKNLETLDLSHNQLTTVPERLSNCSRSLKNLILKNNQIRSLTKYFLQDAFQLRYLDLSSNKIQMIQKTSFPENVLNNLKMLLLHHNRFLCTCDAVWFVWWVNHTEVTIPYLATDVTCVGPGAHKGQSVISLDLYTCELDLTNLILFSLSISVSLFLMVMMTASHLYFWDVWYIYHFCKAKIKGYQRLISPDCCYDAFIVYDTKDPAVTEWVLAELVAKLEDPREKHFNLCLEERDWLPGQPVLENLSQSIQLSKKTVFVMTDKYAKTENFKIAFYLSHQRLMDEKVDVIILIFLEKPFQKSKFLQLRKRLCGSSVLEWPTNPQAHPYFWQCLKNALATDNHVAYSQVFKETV
Method: (§1) Activity against HEK293 NFKB reporter cells expressing human TLR7 or human TLR8 was measured according to Example 202.
(§2) Example 202 HEK Reporter Assay
(§3) HEK293 reporter cells expressing human TLR7 or human TLR8 were purchased from Invivogen and vendor protocols were followed for cellular propagation and experimentation. Briefly, cells were grown to 80-85% confluence at 5% CO2 in DMEM supplemented with 10% FBS, Zeocin, and Blasticidin. Cells were then seeded in 96-well flat plates at 4×10^4 cells/well with substrate containing HEK detection medium and immunostimulatory molecules.

[2] = molecular target: T2, human TLR8 (Homo sapiens, UniProt Q9NR97); assay: HEK Reporter Assay, HEK293 cells expressing human TLR8; format: cell-based; conditions: for EC50: HEK293 NFKB reporter cells expressing human TLR8, read-out: HEK293 hTLR8 EC50
T2 construct: host or cells: HEK293 NF-kB reporter cells
T2 sequence (Q9NR97 27-1041): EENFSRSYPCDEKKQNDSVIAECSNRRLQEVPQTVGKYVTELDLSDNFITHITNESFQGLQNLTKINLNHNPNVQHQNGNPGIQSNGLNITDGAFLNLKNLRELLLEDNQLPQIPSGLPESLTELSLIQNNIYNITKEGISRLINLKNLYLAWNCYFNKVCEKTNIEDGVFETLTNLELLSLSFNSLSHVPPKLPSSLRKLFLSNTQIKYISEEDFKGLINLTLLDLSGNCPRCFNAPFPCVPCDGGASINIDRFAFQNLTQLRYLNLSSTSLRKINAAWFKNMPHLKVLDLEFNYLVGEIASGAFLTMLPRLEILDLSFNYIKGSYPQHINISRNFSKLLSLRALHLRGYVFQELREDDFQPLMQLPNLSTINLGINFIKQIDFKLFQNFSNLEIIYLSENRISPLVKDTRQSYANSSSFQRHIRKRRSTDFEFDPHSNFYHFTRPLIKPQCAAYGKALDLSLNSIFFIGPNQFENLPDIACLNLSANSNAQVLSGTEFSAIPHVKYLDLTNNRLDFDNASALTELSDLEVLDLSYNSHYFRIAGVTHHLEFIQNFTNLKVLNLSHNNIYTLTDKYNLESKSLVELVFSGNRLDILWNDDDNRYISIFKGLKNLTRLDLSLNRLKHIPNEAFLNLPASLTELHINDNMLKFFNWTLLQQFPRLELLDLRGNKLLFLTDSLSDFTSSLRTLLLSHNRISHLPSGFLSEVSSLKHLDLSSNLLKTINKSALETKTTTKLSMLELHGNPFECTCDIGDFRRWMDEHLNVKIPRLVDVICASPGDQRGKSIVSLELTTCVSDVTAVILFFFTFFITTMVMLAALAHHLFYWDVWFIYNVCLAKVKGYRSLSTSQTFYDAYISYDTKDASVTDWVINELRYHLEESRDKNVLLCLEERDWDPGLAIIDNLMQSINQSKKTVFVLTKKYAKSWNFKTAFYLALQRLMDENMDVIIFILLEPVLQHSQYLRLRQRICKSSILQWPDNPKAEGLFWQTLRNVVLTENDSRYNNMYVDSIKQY
Method: as §1, §2, §3

[3] = Hydrophilicity comparison with comparator C-2; format: physicochemical

Compound	EC50 [1] [µM]	EC50 [2] [µM]	TLR7 activity relative to known TLR7 adjuvant C-1 [1]	hydrophilicity relative to C-2 [3]	TLR8 potency relative to known TLR8 adjuvant C-2 ([2]; HEK human TLR8 activity at 24 hours, FIG. 2)
CCCN(CCCNC(=O)OC1CCC1)C(=O)C1=Cc2c(cnn2CCCCCN)N=C(N)C1 [PAZ-15, cyclobutyl (3-(5-amino-1-(5-aminopentyl)-N-propyl-1,6-dihydropyrazolo[4,3-b]azepine-7-carboxamido)propyl)carbamate]	> 9	> 9	–	–	–
CCCN(CCC)C(=O)C1=Cc2c(cnn2CCCCCNC(=O)OC(C)(C)C)N=C(N)C1 [PAZ-4, tert-butyl N-[5-[5-amino-7-(dipropylcarbamoyl)-6H-pyrazolo[4,3-b]azepin-1-yl]pentyl]carbamate]	2.92	3.1	–	–	–
CCCN(OCC)C(=O)C1=Cc2c(cnn2CCCCCNC(=O)OC(C)(C)C)N=C(N)C1 [PAZ-11, tert-butyl N-[5-[5-amino-7-[ethoxy(propyl)carbamoyl]-6H-pyrazolo[4,3-b]azepin-1-yl]pentyl]carbamate]	0.795	1.49	comparable TLR7 activity	improved hydrophilicity	better TLR8 potency
CCCN(OCC)C(=O)C1=Cc2c(cnn2CCCCCN)N=C(N)C1 [PAZ-12, 5-amino-1-(5-aminopentyl)-N-ethoxy-N-propyl-6H-pyrazolo[4,3-b]azepine-7-carboxamide]	3.21	0.29	–	–	–
CCCN(CCC)C(=O)C1=Cc2c(cnn2Cc2ccc(CNC(=O)OC(C)(C)C)cc2)N=C(N)C1 [PAZ-13, tert-butyl N-[[4-[[5-amino-7-(dipropylcarbamoyl)-6H-pyrazolo[4,3-b]azepin-1-yl]methyl]phenyl]methyl]carbamate]	0.881	3.84	–	–	–
CCCN(CCCNC(=O)CC(C)(C)C)C(=O)C1=Cc2c(cnn2CCCCCNC(=O)OC(C)(C)C)N=C(N)C1 [PAZ-8, tert-butyl N-[5-[5-amino-7-[3-(3,3-dimethylbutanoylamino)propyl-propyl-carbamoyl]-6H-pyrazolo[4,3-b]azepin-1-yl]pentyl]carbamate]	2.75	> 9	–	–	–
CCCN(CCCNC(=O)CC(C)(C)C)C(=O)C1=Cc2nn(CCCCCNC(=O)OC(C)(C)C)cc2N=C(N)C1 [PAZ-10, tert-butyl N-[5-[5-amino-7-[3-(3,3-dimethylbutanoylamino)propyl-propyl-carbamoyl]-6H-pyrazolo[4,3-b]azepin-2-yl]pentyl]carbamate]	> 9	3.23	–	–	–
CCCN(CCC)C(=O)C1=Cc2ccc(-c3cccc(S(=O)(=O)N4CC(CO)C4)c3)cc2N=C(N)C1 [C-2, reference compound]	> 9	1.59	–	–	–
CCCN(CCCNC(=O)CC(C)(C)C)C(=O)C1=Cc2c(cnn2CCCCCN)N=C(N)C1 [PAZ-7, 5-amino-1-(5-aminopentyl)-N-[3-(3,3-dimethylbutanoylamino)propyl]-N-propyl-6H-pyrazolo[4,3-b]azepine-7-carboxamide]	> 9	> 9	–	–	–

Now from value to compound:

EC50 [1] [µM]	EC50 [2] [µM]	TLR7 activity relative to known TLR7 adjuvant C-1 [1]	hydrophilicity relative to C-2 [3]	TLR8 potency relative to known TLR8 adjuvant C-2 ([2]; HEK human TLR8 activity at 24 hours, FIG. 2)	Compound
> 9	> 9	–	–	–	CCCN(CCCNC(=O)CC(C)(C)C)C(=O)C1=Cc2nn(CCCCCN)cc2N=C(N)C1 [PAZ-9, 5-amino-2-(5-aminopentyl)-N-[3-(3,3-dimethylbutanoylamino)propyl]-N-propyl-6H-pyrazolo[4,3-b]azepine-7-carboxamide]
> 9	2.96	comparable TLR7 activity	–	–	CCCN(CCC)C(=O)C1=Cc2c(cnn2CCCCCN)N=C(N)C1 [PAZ-2, 5-amino-1-(5-aminopentyl)-N,N-dipropyl-6H-pyrazolo[4,3-b]azepine-7-carboxamide]
> 9	4.05	–	–	–	CCCN(CCC)C(=O)C1=Cc2nn(C)cc2N=C(N)C1 [PAZ-6, 5-amino-2-methyl-N,N-dipropyl-6H-pyrazolo[4,3-b]azepine-7-carboxamide]
> 9	> 9	–	–	–	CCCN(CCC)C(=O)C1=Cc2nn(CCCCCNC(=O)OC(C)(C)C)cc2N=C(N)C1 [PAZ-5]
5.59	> 9	–	–	–	CCCN(CCC)C(=O)C1=Cc2c(cnn2Cc2ccc(CN)cc2)N=C(N)C1 [PAZ-14, 5-amino-1-[[4-(aminomethyl)phenyl]methyl]-N,N-dipropyl-6H-pyrazolo[4,3-b]azepine-7-carboxamide]
> 9	4.15	–	–	–	CCCN(CCC)C(=O)C1=Cc2c(cnn2C)N=C(N)C1 [PAZ-1, 5-amino-1-methyl-N,N-dipropyl-1,6-dihydropyrazolo[4,3-b]azepine-7-carboxamide]
> 9	> 9	–	–	–	CCCN(CCC)C(=O)C1=Cc2nn(CCCCCN)cc2N=C(N)C1 [PAZ-3]
